One data set concerns lewis lung carcinomas. The settings on record: cited from earlier work.
A further data set has as its system MCF-7. The settings on record: aplidine 50 nmol/L; cited from earlier work.
Data set [1] has as its system NP9 human pancreatic carcinoma. Briefly: NP9 human pancreatic carcinoma xenograft, primary tumour. In kind it is in vivo, Nu/Nu Swiss mice. Particulars: for Solid tumour weight (g) / Total tumour weight (g): 0.8 mg/kg q4d ip. An excerpt:
(§1) Aplidine is a new cyclic depsipeptide with anticancer activity in vitro and in vivo in different tumour types, but it has not been tested in pancreatic carcinoma. Nevertheless, this pathology has a poor prognosis because of difficult early diagnosis, aggressiveness and lack of effective systemic therapies. Most patients die of metastases present at diagnosis. We compared the antitumour effect of aplidine against 2 human pancreatic carcinomas, NP9 and NP18, using orthotopic (ORP) and subcutaneous (SC) tumour implantation models. […] METHODS: Groups of ten male Nu/Nu Swiss mice (4 wk old) were treated with vehicle or aplidine. To evaluate primary tumour response, ip aplidine was given, starting 2 weeks (wk) after implantation, at 0.8 mg/kg q4d for 4 wk (NP9) or at 0.8 mg/kg q4d for 6 wk, ceasing treatment the 4th and 5th wk (NP18). To evaluate the response of NP9 metastasis aplidine regime was 0.8 mg/kg q4d per 3 doses, starting 4 weeks after implantation. We measured final tumour weight, macroscopic viability (viable cortex/total tumour weight), microscopic necrosis, apoptotic induction and signal transduction. […] This effect was due to apoptotic induction leading to a reduced number of viable cells in both tumours. Apoptotic induction on NP18 was associated with PARP cleavage and reduced AKT activation, only in ORT-treated tumours. aplidine induced a decrease in cyclins B1 and D1 and FAK expression only in ORT NP9-treated tumours. […] CONCLUSIONS: The use of an ORT implantation model permitted the observation of the antitumour effect of aplidine on primary tumours and metastases of human pancreatic carcinomas. aplidine altered apoptotic and proliferative pathways, which could explain its antitumour effect.
(§2) We used two human pancreatic carcinomas (NP18 and NP9) perpetuated as orthotopic xenografts in nude mice. NP9 produce an extensive peritoneal dissemination 4-5 weeks after implantation (metastatic). We implanted these tumours in four week-old male Nu/Nu Swiss mice (Charles River), housed in autoclaved cages and provided y-ray sterilized bedding and food. They were anesthetized with 2,2,2-tribromoethanol (Sigma-Aldrich) and 10 mg fragments of each tumour from previous passages were implanted orthotopically (ORT, at the pancreas). Xenografted animals were randomly distributed in control (n=10) and experimental (n=10) groups just before treatment. We excluded animals bearing non palpable tumours after ORT implantation, or with tumour volumes lower than 0.13 cm^3 (0.5 cm in diameter). Treatment schedule depended on tumour growth rate. In the fast growing NP9 tumour, two schedules of treatment were used. In one, treatment started two weeks after tumour implantation, before peritoneal dissemination had occurred. Each animal in the experimental group received ip administrations of aplidine at a dose of 0.8 mg/Kg q4d per four weeks. In the other schedule, treatment started four weeks after tumour implantation, once peritoneal dissemination had occurred, with a regime of aplidine of 0.8 mg/Kg q4d per three doses. The existence of macroscopically visible implants was confirmed one day before the treatment begun, by the sacrifice of one extra animal. In the NP18 tumour, treatment started 4 weeks after tumour implantation and the schedule of aplidine was 0.8 mg/Kg q4d ip for 4 weeks, ceasing treatment for two weeks, and continuing with 0.8 mg/Kg q4d ip for two additional weeks. The animals in the corresponding control groups received i.p. administrations of vehicle following the same schedule. After implantation, and during treatment, mice were inspected twice a week and weighted weekly to monitor for compound toxicity.
(§3) At the end of treatment, animals were euthanized and dissemination recorded. Primary tumours were excised and weighted in all groups. Tumor aliquots were frozen down in liquid nitrogen or fixed in formaline. We counted the number of peritoneal implants in each animal and took samples for histological and molecular analysis. […]
For orientation: A xenograft is tissue or cells of one species grown in another, often human tumour cells in immunodeficient mice.

The subject of data set [2] is Non-small cell lung cancer, breast cancer and melanoma cell lines. The settings on record: continuous exposure; cited from earlier work.
Another data set has as its target T1, ornithine decarboxylase (Homo sapiens, UniProt P11926).
T1 construct: endogenous in cells; host or cells: CT-1, CT-2 and HT-29 colon cell lines
T1 sequence (P11926 1-461): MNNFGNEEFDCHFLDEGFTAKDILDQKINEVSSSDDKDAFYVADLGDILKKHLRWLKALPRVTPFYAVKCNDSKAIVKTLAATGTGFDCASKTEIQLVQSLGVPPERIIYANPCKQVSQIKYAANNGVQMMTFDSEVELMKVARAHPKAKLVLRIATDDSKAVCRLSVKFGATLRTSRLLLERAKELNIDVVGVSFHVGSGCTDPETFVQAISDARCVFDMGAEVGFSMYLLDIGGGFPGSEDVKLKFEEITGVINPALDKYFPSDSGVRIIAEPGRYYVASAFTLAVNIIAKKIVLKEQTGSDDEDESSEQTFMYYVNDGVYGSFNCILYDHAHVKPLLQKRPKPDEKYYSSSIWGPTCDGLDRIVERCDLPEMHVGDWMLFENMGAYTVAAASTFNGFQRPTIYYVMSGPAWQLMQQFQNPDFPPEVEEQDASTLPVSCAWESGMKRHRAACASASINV
The settings on record: all three cell lines; cited from earlier work.

Another data set relates to NP9 peritoneal implants. Description: NP9 peritoneal metastases after orthotopic implantation. It counts as in vivo, Nu/Nu Swiss mice.
Text: as §1, §2, §3

A further data set relates to MDA-MB231. The settings on record: aplidine 50 nmol/L; cited from earlier work.
A further data set deals with prostate tumour. Particulars: 1.25 mg/kg; cited from earlier work.
In data set [3] the test system is NP18 human pancreatic carcinoma. Briefly: NP18 human pancreatic carcinoma xenograft, primary tumour. In kind it is in vivo, Nu/Nu Swiss mice. Particulars: for Total tumour weight (g): 0.8 mg/kg q4d ip.
Text: as §1, §2, §3

A short description of data set [4]: Stability of aplidine solution and lyophilised dosage form. In kind it is physicochemical. Here is the method:
In a currently preferred embodiment freeze-drying was performed from a […] solution of aplidine in 40% (v/v) tert-butanol in Water for Injection (Wfl) containing 25 mg/mL D-mannitol as bulking agent. […] Both reconstituted product and dilutions (up to 1:100 v/v) of the reconstituted product with normal saline appeared to be stable for at least 24 hours after preparation.

Data set [5] concerns P388 leukaemia and B 16 melanoma. The settings on record: mouse, in vivo; cited from earlier work.
Another data set deals with human cancer xenografts. The settings on record: cited from earlier work.
Data set [6] concerns CT-1, CT-2 and HT-29 cell lines. Particulars: CT-1, CT-2, HT-29; cited from earlier work.
The subject of a further data set is pancreatic tumour. The settings on record: 4 patients with pancreatic tumour, phase I; cited from earlier work.
A further data set concerns gastric tumours. Particulars: 1.25 mg/kg; cited from earlier work.

Marks after values point to notes of the source that are not given here. Starred links: 1 amine or outer side, 2 acyl side, 3 side chain; linkers in the order of their positions; H or OH if unused. Positions of bridges follow the written chain, without caps; N, C: chain ends. Non-standard residues stand in square brackets, D forms with d. Residues, ends and D or L forms follow the SMILES beside them. *: point of attachment. X1 = CC[C@H](C)[C@@H](N[*:1])[C@@H](O)CC(=O)O[C@H](C(=O)[C@H](C)C(=O)[*:2])C(C)C; NMeY = CN[C@@H](Cc1ccc(O)cc1)C(=O)O; dNMeL = CN[C@H](CC(C)C)C(=O)O; Pyruvoyl = CC(=O)C(=O)*

In the case of `CC[C@H](C)[C@H]1NC(=O)[C@@H](NC(=O)[C@@H](CC(C)C)N(C)C(=O)[C@@H]2CCCN2C(=O)C(C)O)[C@@H](C)OC(=O)[C@H](Cc2ccc(OC)cc2)N(C)C(=O)[C@@H]2CCCN2C(=O)[C@H](CC(C)C)NC(=O)[C@@H](C)C(=O)[C@H](C(C)C)OC(=O)C[C@@H]1O` (some centres unmarked) [didemnin B, reference compound], in the data set with lewis lung carcinomas, the “activity in SC implanted lewis lung carcinomas” value was “Unlike didemnin B, aplidine was active”.

On to `CC[C@H](C)[C@H]1NC(=O)[C@@H](NC(=O)[C@@H](CC(C)C)N(C)C(=O)[C@@H]2CCCN2C(=O)C(C)=O)[C@@H](C)OC(=O)[C@H](Cc2ccc(OC)cc2)N(C)C(=O)[C@@H]2CCCN2C(=O)[C@H](CC(C)C)NC(=O)[C@@H](C)C(=O)[C@H](C(C)C)OC(=O)C[C@@H]1O` [aplidine] (Pyruvoyl-P[dNMeL]T[X1]LP[NMeY](Me); ester 3-C), for which, in the data set with MCF-7, the inhibition of growth is listed as 47%. Also, the “active forms of caspases 3, 7 or 8 (Western blot)” value in data set [1] (NP9) was “No active forms of caspases 3, 7 or 8 were detected”. Moreover, in data set [1] (NP9, ORT), the “FAK expression (Western blot)” value is given as “downregulation of FAK”; the “cyclin B1 and cyclin D1 expression (Western blot)” value is “decreased expression of cyclin B1 and cyclin D1”; the “macroscopic appearance, invasion by primary tumour” value is reported as “did not invade other organs of the peritoneum”; the “Solid tumour weight (g)” value is on record as 3.04 ± 1.04^f g. The “Total tumour weight (g)” value in data set [1] (NP9, ORT) was 3.72 ± 1.09^b g. Further, the “foci of non-viable/necrotic cells, share of each tumour” value in data set [1] (NP9, ORT treated) is reported as 75-100%. In data set [1] (NP9, ORT, viable tissue), the Ki67 result is “downregulation” and the “apoptosis (Hoescht nuclear staining)” value is reported as “significantly increased apoptosis”. For the same compound, in [1] (NP9, SC), the “cyclin B1 and cyclin D1 levels (Western blot)” value is “no differences in cyclin B1 or cyclin D1 levels”; the “Solid tumour weight (g)” value is 0.87 ± 0.44^e g; the “Total tumour weight (g)” value is on record as 1.56 ± 0.8^a g. The “difference in total or solid tumour weight vs control” value in [1] (NP9, any site) is recorded as “no significant differences”. For the same compound, the “ERK activation (Western blot)” value in data set [1] (NP9, both tumour sites) was “ERK activation was unaltered”. Moreover, the “concentration to which cell lines were sensitive” value in data set [2] was “>= 0.001 micromol/L”. The ornithine decarboxylase activity result at ornithine decarboxylase is given as “decreased ornithine decarboxylase activity”. In the data set on NP9 peritoneal implants (established metastases), the “apoptotic nuclei per treated implant (Hoescht)” value is 3-6. For the same compound, in the data set with NP9 peritoneal implants (mouse, in vivo), the “Caspase-3 activation and PARP cleavage in metastases” value is “No activation of Caspase-3 nor PARP cleavage”; the “necrosis in peritoneal implants (H&E)” value is “did not contain necrotic areas”. Further, in the data set with NP9 peritoneal implants (treatment initiated before dissemination, 0.8 mg/Kg q4d four weeks), the peritoneal implants entry is “no peritoneal implants were observed in any animal”. Also, the “diameter of peritoneal implants” value in the data set with NP9 peritoneal implants (treatment started once metastases macroscopically evident) is given as “less than 1 mm”. Moreover, in the data set with NP9 peritoneal implants (treatment started once metastases macroscopically evident, 0.8 mg/Kg q4d three doses), the “number of peritoneal implants per animal” value is 7-20. Also, in the data set with NP9 peritoneal implants (vs control metastases), the “ERK activation in metastases” value is “lower ERK activation”. For the same compound, the inhibition of growth with MDA-MB231 is reported as 17%. The “activity in SC implanted lewis lung carcinomas” value in the data set with lewis lung carcinomas was “active”. For the same compound, the T/C in the data set on prostate tumour is listed as 25%. For the same compound, in data set [3] (NP18), the “size or macroscopic appearance of primary tumour” value is “did not significantly change”. In addition, in data set [3] (NP18, ORT), the “AKT activation (Western blot)” value was “Decrease AKT activation”; the “PARP cleavage (Western blot)” value is recorded as “PARP cleavage”; the “caspases 3, 7 and 8 (Western blot)” value is “activation of caspases 3, 7 and 8”; the “Total tumour weight (g)” value is reported as 9.34 ± 1.3^d g. Moreover, the “microscopic necrosis (H&E)” value in [3] (NP18, ORT treated vs ORT control) is “significantly higher level of necrosis”. In [3] (NP18, ORT, viable tissue), the “apoptosis (Hoescht nuclear staining)” value is on record as “significantly increased apoptosis”. In data set [3] (NP18, SC), the “AKT, caspases 3, 7, 8 and PARP regulation (Western blot)” value is “did not alter the regulation of any of these proteins”; the “Total tumour weight (g)” value is listed as 15.5 ± 5.3^c g. Further, in data set [3] (NP18, any site), the “ERK activation (Western blot)” value is on record as “No differences in ERK activation” and the “difference in total or solid tumour weight vs control” value is listed as “no significant differences”. The “degradation under stress testing” value in data set [4] is listed as “substantial degradation”. Also, in [5], the “activity against implanted tumours” value is reported as “active” and the optimal dose is on record as 160 micro/kg. Also, the “treated/control (T/C) tumour ratio” value in the data set on human cancer xenografts (2.1 mg/kg) was 9%. Besides, in the data set with human cancer xenografts (mice bearing human cancer xenografts), the maximum tolerated dose is given as 2.1 mg/kg. Further, the cytotoxic activity entry in [6] is “dose-dependent cytotoxic activity”. Moreover, in the data set with pancreatic tumour, the “tumour response of patients” value is recorded as “did not respond”. In the data set on gastric tumours, the T/C was 14%.

Usually inhibition of growth stands for the drop in the measured response relative to a control, in per cent. One may read the T/C as the result in the treated group divided by that in the control group, in per cent.

The record behind these values is US20100041594A1, “Use of Aplidine for the Treatment of Pancreatic Cancer” (Pharma Mar, S.A., priority 2001, published 2010).
